Earlier results, collected in patent US20190320698A1, “HYDROLYZED PECTIN AND USEOF THE SAME” (International Flavors & Fragrances Inc., priority 2018, published 2019).

Conditions: approximate values

| Compound | Water Solubility (g/L, approx.) |
| --- | --- |
| CCCC(=O)OC [methyl butyrate] | ~15 g/L |
| CCCC(=O)OCC [ethyl butyrate] | ~6 g/L |
| CCOC(C)=O [ethyl acetate] | ~90 g/L |
| CCOC(=O)CC [ethyl propionate] | ~14 g/L |
| CSC [dimethyl sulfide] | Insoluble |
